The values below come from paper PMC7026418, “The kinase polypharmacology landscape of clinical PARP inhibitors” (Scientific Reports, 2020).

Where two headings read alike, the source gives them in different places.

What all share (experiment): biochemical
What all share (set-up): DiscoveRx KINOMEscan active site-directed competition binding; percent of control kinase bound to immobilised ligand

The target of experiment [1] is T1, ABL1(H396P)-nonphosphorylated (Homo sapiens, UniProt P00519, H396P).
T1 construct: nonphosphorylated

Experiment [2] has as its target T2, ABL1(H396P)-phosphorylated (Homo sapiens, UniProt P00519, H396P).
T2 construct: phosphorylated

The next experiment has as its target T3, ASK1 (Homo sapiens, UniProt Q99683).
T3 construct: gene MAP3K5
T3 sequence (Q99683 1-1374): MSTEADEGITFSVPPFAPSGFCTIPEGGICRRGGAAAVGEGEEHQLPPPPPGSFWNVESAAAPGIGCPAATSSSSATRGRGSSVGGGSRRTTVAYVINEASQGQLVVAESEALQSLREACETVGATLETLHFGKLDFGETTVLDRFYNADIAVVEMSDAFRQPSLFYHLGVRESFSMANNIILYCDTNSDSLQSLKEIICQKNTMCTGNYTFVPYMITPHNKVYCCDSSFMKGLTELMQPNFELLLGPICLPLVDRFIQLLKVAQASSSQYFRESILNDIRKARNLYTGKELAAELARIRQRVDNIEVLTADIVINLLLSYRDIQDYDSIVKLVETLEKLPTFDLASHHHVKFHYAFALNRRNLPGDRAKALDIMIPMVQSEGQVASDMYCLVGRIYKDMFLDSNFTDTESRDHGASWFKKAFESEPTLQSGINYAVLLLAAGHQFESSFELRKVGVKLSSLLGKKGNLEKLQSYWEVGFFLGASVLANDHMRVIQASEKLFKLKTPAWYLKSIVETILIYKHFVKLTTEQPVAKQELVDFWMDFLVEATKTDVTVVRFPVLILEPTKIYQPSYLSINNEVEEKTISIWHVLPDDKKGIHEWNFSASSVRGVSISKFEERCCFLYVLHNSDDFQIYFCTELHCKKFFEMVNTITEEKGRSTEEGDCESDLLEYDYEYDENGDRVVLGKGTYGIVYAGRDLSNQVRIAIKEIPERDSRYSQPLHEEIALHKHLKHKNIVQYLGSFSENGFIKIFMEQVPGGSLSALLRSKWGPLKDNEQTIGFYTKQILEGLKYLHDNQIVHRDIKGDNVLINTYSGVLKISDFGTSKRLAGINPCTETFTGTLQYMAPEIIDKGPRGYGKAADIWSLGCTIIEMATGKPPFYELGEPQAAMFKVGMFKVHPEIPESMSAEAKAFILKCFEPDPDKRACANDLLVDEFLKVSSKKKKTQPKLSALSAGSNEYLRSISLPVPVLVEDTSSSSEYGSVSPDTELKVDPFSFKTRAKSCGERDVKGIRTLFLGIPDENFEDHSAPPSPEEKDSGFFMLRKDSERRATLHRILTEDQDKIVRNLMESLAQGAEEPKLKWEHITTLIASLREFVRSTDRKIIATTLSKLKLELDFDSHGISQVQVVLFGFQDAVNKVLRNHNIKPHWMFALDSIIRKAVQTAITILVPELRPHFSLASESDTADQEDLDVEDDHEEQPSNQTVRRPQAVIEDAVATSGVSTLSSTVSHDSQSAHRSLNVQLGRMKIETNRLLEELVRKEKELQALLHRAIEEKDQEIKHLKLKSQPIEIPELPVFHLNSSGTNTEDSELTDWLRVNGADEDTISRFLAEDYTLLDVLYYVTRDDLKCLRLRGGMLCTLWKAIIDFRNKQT

A further experiment has as its target T4, EPHA3 (Homo sapiens, UniProt P29320).
T4 sequence (P29320 1-983): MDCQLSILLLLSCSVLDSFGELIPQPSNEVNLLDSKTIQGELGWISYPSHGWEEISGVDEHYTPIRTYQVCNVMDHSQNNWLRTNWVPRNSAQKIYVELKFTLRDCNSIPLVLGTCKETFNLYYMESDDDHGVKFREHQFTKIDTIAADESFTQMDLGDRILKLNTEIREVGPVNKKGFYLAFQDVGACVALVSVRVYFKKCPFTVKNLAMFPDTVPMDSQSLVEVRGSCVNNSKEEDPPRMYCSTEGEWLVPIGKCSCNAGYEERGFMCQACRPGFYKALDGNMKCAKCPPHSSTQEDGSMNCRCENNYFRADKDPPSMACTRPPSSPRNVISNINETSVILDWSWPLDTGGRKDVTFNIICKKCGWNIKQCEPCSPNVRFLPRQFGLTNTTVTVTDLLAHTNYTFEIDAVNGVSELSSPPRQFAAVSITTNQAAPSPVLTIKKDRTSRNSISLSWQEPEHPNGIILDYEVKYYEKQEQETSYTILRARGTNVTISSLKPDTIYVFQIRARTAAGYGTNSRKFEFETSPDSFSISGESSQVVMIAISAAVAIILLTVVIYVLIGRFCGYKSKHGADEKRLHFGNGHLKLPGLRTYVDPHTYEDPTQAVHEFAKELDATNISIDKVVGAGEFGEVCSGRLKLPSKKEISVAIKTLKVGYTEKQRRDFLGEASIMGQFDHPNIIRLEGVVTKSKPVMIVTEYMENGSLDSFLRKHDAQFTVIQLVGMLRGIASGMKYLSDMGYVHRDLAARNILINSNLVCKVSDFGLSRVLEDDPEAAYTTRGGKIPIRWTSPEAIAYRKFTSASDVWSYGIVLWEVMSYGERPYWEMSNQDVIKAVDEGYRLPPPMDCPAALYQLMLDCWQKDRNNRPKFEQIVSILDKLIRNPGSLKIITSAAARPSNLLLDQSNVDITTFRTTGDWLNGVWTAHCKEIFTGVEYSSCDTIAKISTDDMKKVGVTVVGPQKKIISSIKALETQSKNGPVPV

For a further experiment, the target named is PIM3 (Homo sapiens, UniProt Q86V86).
Where [3] appears, read: read-out: Rucaparib / %Ctrl @ 10000nM, binding competition, % of control.
Setting [4] is: read-out: Talazoparib (BMN 673) / %Ctrl @ 10000nM.
[5] abbreviates: read-out: Niraparib (MK-4827) / %Ctrl @ 10000nM.
[6] abbreviates: read-out: Olaparib / %Ctrl @ 10000nM.

As to `CNCc1ccc(-c2[nH]c3cc(F)cc4c3c2CCNC4=O)cc1` [Rucaparib], the percent of control binding at 10 µM in experiment [1] (setting [3]) came to 68%; in experiment [2] (setting [3]) it was 80%; on ASK1 (setting [3]), 92%; on EPHA3 (setting [3]) it was 88%.
In the case of `Cn1ncnc1[C@H]1c2n[nH]c(=O)c3cc(F)cc(c23)N[C@@H]1c1ccc(F)cc1` [Talazoparib], the percent of control binding at 10 µM came out at 92% in experiment [1] (setting [4]); 92% in experiment [2] (setting [4]); 100% at PIM3 (setting [4]); 93% at ASK1 (setting [4]); 100% at EPHA3 (setting [4]).
Consider `NC(=O)c1cccc2cn(-c3ccc([C@@H]4CCCNC4)cc3)nc12` [Niraparib], for which the percent of control binding at 10 µM in experiment [1] (setting [5]) stood at 65%; in experiment [2] (setting [5]), 58%; on PIM3 (setting [5]) it was 17%; at ASK1 (setting [5]) it was 90%; at EPHA3 (setting [5]), 81%.
Take `O=C(c1cc(Cc2n[nH]c(=O)c3ccccc23)ccc1F)N1CCN(C(=O)C2CC2)CC1` [Olaparib]: the percent of control binding at 10 µM stood at 82% in experiment [1] (setting [6]); 83% in experiment [2] (setting [6]); 99% at PIM3 (setting [6]); 94% on ASK1 (setting [6]); 100% on EPHA3 (setting [6]).
